# Entries after “also recorded” stand apart in the source; their conditions may differ. Read-outs that look alike come from different tables or passages of the source.
# Key:
# [1] = system: ScFv anti CEA-CPG2 fusion protein; test: Binding studies using Surface Plasmon Resonance (Biacore), peptide immobilised on CM5 chip; parameters: species or system Psuedomonas
# Text: Peptide clearing agents of the invention are exemplified herein displaying appropriate kinetics and affinity properties. Such kinetic and affinity properties may be measured using any suitable means. Kinetic and affinity parameters may be derived based upon binding studies using Surface Plasmon Resonance (SPR), which is a well known technique (and commercially available, for example from GE Healthcare—Biacore system). Data obtained using a suitable instrument may be analysed by appropriate software to automatically derive the relevant parameters. An appropriate binding model may be applied by the software to ensure the fit to the curves is as close as possible. A chi2 value of less than 0.2 may be considered an acceptable fit.
# Binding Studies Using Surface Plasmon Resonance (SPR)
# Peptides were coupled to a CM5 chip using EDC/NHS chemistry as recommended by the manufacturer (GE healthcare). Analytes were made up in HBS-P buffer (0.01 M HEPES pH 7.4, 0.15 M NaCl, 0.005% v/v Surfactant P20) and injected over the surface for 180 seconds at 5 μl/min followed by a dissociation time of 300 seconds. Residual binding was removed using two 10 second injections of regeneration buffer (10 mM CHAPS, 1 mM Guanidinium hydrochloride, 2 M NaCl). Response signals and baselines were checked for consistency throughout the experiment and flow rates of 15 and 75 μl/min were tested to confirm minimal effects due to mass transport.
# FIGS. 6a and 6c each show four sensorgrams overlaid. These are the blank-subtracted real time responses from injections of 12.5, 25, 50 and 100 nM ScFVanti-CEA-CPG2 over the chip surface of immobilised CP014 peptide. The data has been fitted using two different algorithms supplied in the BiaCore software (“Biaevaluation”). The first, shown in FIG. 6a, was a 1:1 binding model (Langmuir) and the second, shown in FIG. 6c, was a 2-state reaction fit. Both fits align closely to the normalised sensorgrams. […] In addition, the Chi2 values are 0.154 and 0.0882 respectively and are within the acceptable range (<0.2) for these types of calculation. For both fits the dissociation constant (binding constant KD) was in close agreement at 5 nM and 9 nM, respectively.
# [2] = molecular target: CPG2 enzyme activity of ScFV anti CEA-CPG2; test: Spectrophotometric CPG2 enzyme inhibition assay (methotrexate hydrolysis, absorbance at 320 nm); type: biochemical, Psuedomonas; details: for IC50: methotrexate substrate 60 μM, 37° C., pH 7.3; for inhibition of CPG2 activity (in words): spectrophotometric assay
# Procedure: Enzyme Inhibition Assay Method Used for the Assessment of CP014 as an Inhibitor of CPG2 Activity
# The effect that CP014 had on CPG2 activity was measured using a spectrophotometric assay. CP014 was dissolved in assay buffer (0.1 M Tris-HCl buffer at pH 7.3 containing 0.2 mM zinc chloride) to give a concentration of 40 mM. Various aliquots of this solution were added to cuvettes and assay buffer was added to adjust the volume of solution in each cuvette to 900 μL. 100 μL aliquots of 0.6 mM methotrexate solution in assay buffer were added to each cuvette to give a methotrexate substrate concentration of 0.06 mM (60 μM). The range of the concentration of CP014 in the cuvettes was 0-400 μM.
# The substrate solutions in the cuvettes were heated to 37° C. in an oven. The cuvettes were then placed in turn in a spectrophotometer which was maintained at 37° C. using a Peltier. The assays were commenced by adding a 10 μL aliquot of fusion protein (ScFV anti CEA-CPG2) solution or CPG2 solution, followed by brief stirring. The hydrolysis of the methotrexate substrate was monitored by measuring the decrease in absorbance at 320 nm.
# One unit (1 U) of CPG2 activity is defined as the amount of enzyme which catalyses the hydrolysis of 1 μmol of methotrexate per minute at 37° C. The molar extinction coefficient of methotrexate was taken as 8300 L mol^−1 cm^−1. For each assay a plot of absorbance versus time was created and a straight line was fitted to the data between 0 and 0.2 minutes. The slope of the straight line was then multiplied by minus 12 and the dilution factor of the ScFV anti CEA-CPG2/CPG2 solution to give the enzyme activity in U/mL.
# A variation of the assay was to incubate various amounts of CP014 with ScFV anti CEA-CPG2 or CPG for a period of time at 4° C. prior to CPG2 assay. Following this incubation step, a 10 μL aliquot of each mixture was added to a cuvette that contained a 1 mL aliquot of 0.06 mM methotrexate in assay buffer at 37° C. After stirring the contents of the cuvette, the measurement of the decrease in absorbance and subsequent determination of enzyme activity were carried out as described above.
# The effectiveness of CP014 in inhibiting CPG2 activity was expressed in terms of its IC50 value, i.e. the half maximal inhibitory concentration. Using GraphPad Prism 5 software, the IC50 value was determined by applying non-linear regression to a plot of enzyme activity versus the logarithm of the CP014 concentration.
# ScFV anti CEA-CPG2 = test: Non-amplified Amplex Red assay for screening of potential CPG2 substrates; type: biochemical, Psuedomonas; details: for substrate potential for CPG2 (in words): Amplex Red fluorescence, CP014 12.5 and 100 μM, FIG. 10 substrate 12.5 μM
# Text: Non-Amplified Amplex Red Assay for the Screening of Potential CPG2 Substrates
# It was established that CP014 is a potential inhibitor of CPG2 activity using a spectrophotometric assay. […] The so-called Amplex Red assay can be used to measure to measure L-glutamate in food samples and continuously monitor glutamate oxidase activity. By eliminating an amplification step in the assay procedure, it was possible to screen compounds as substrates for CPG2. In the modified assay, L-glutamic acid that has been cleaved from a substrate of CPG2 is oxidised by glutamate oxidase to produce α-ketoglutarate, ammonia and hydrogen peroxide. The hydrogen peroxide then reacts with 10-acetyl-3,7-dihydroxyphenoxazine (Amplex Red reagent) in a 1:1 stoichiometry in a reaction catalysed by horseradish peroxidise (HRP) to generate the highly fluorescent product, resorufin.
# 25 μM and 200 μM solutions of CP014 in assay buffer (0.1 M Tris-HCl buffer at […] containing 0.2 mM zinc chloride), and a 25 μM solution of folic acid in assay buffer were prepared. The Amplex Red reagent mixture was prepared by combining 2.5 μL 10 mM solution of Amplex Red reagent in DMSO, 5 μL HRP solution in assay buffer (100 U/mL), 32 μL L-glutamate oxidase solution in assay buffer (5 U/mL) and 460.5 μL assay buffer solution. ScFV anti CEA-CPG2 fusion protein was diluted appropriately using assay buffer.
# A 50 μL aliquot of CP014 solution or 25 μM folic acid solution and a 50 μL aliquot of the Amplex Red reagent mixture were added to a well of a black microtitre plate. The plate was covered, then incubated at 37° C. for 10 minutes. The cover was removed and a 1 μL aliquot of ScFV anti CEA-CPG2 was added. After brief stirring, the plate was placed in a BMG Fluostar Omega plate reader and the fluorescence intensity was monitored over a 245 second period at 5 second intervals. The excitation filter wavelength was set at 544 nm and the emission filter wavelength was set at 590 nm.
# When ScFV anti CEA-CPG2 was diluted to a concentration of approximately 2 U/mL, the slope value that was calculated for the 12.5 μM folic acid control assay was approximately 4.0.
structure (smiles),measurement,setting,value
"Nc1ccc2ccccc2c1C(=O)N[C@@H](CCC(=O)O)C(=O)O [CP006, Amino-Naphthoic Acid (ANA)-Glutamate (Glu)]",affinity for the active site of CPG2 (in words),[1],nanomolar affinity
same,IC50,[2],88.5 µM
same,IC50,[2]; listed as formula I,~88.5 µM
same,inhibition of CPG2 activity (in words),[2],is an inhibitor
same,substrate potential for CPG2 (in words),ScFV anti CEA-CPG2,Poor Substrate; also recorded: low substrate activity
same,substrate potential for CPG2 (in words),ScFV anti CEA-CPG2; listed as formula I,not acted upon as a substrate
C[C@@H](NC(=O)[C@@H](N)CO[C@H]1OC(CO)[C@H](O)C(O)C1O)C(=O)Nc1ccc2ccccc2c1C(=O)NC(CCC(=O)O)C(=O)O (stereo partly drawn) [CP014],affinity for the active site of CPG2 (in words),[1],nanomolar affinity
same,KA (equilibrium association constant),[1]; 1:1 Langmuir fit,1.98e+08 M⁻¹
same,Ka (association rate constant),[1]; 1:1 Langmuir fit,226000 M⁻¹ s⁻¹
same,Kd (dissociation rate constant),[1]; 1:1 Langmuir fit,0.00114 s⁻¹
same,Kd,"[1]; 1:1 Langmuir fit, read-out: KD (dissociation constant)",0.00504 µM
same,Kd,"[1]; 1:1 Langmuir fit, read-out: dissociation constant (binding constant KD)",0.005 µM
same,K (equilibrium association constant),[1]; 2 state reaction fit,1.09e+08 M⁻¹
same,ka1,[1]; 2 state reaction fit,284000 M⁻¹ s⁻¹
same,ka2,[1]; 2 state reaction fit,0.014 s⁻¹
same,kd1,[1]; 2 state reaction fit,0.0258 s⁻¹
same,kd2,[1]; 2 state reaction fit,0.00158 s⁻¹
same,Kd,"[1]; 2 state reaction fit, read-out: dissociation constant (binding constant KD)",0.009 µM
same,IC50,[2],110 µM
same,IC50,[2]; listed as formula II,~110 µM
same,inhibition of CPG2 activity (in words),[2],inhibits CPG2 activity; also recorded: is an inhibitor
same,"slope of fluorescence intensity versus time, against negative control (in words)",ScFV anti CEA-CPG2; 12.5 and 100 μM in the plate well,no greater than that of the negative control sample
same,substrate potential for CPG2 (in words),ScFV anti CEA-CPG2,not a substrate; also recorded: not altered or used as a substrate; also recorded: not turned over
same,substrate potential for CPG2 (in words),ScFV anti CEA-CPG2; listed as formula II,not acted upon as a substrate
"Nc1nc2ncc(CNc3ccc(C(=O)N[C@@H](CCC(=O)O)C(=O)O)cc3)nc2c(=O)[nH]1 [Folic acid, reference compound]",slope of fluorescence intensity versus time,"ScFV anti CEA-CPG2; 12.5 μM in well, ScFV anti CEA-CPG2 approximately 2 U/mL",approximately 4.0
same,substrate potential for CPG2 (in words),ScFV anti CEA-CPG2,positive controls
"CN(Cc1cnc2nc(N)nc(N)c2n1)c1ccc(C(=O)N[C@@H](CCC(=O)O)C(=O)O)cc1 [methotrexate, reference compound]",substrate potential for CPG2 (in words),ScFV anti CEA-CPG2,positive controls

# Source: patent US8846861B2, “Peptide clearing agents” (Mologic Ltd, priority 2009, dated 2014)
